# According to patent US20240342068A1, “CYCLODEXTRIN-BASED ETHYL LAUROYL ARGINATE (LAE) CLATHRATE, AND PREPARATION METHOD AND USE THEREOF” (NANJING UNIVERSITY OF FINANCE & ECONOMICS, priority 2022, published 2024):
# Experiments:
# [1] = Low-temperature storage stability at 4° C. (appearance); format: physicochemical
# Method: (§1) The pH stability of a system was characterized by measuring turbidity and particle size. A 1% w/v LAE aqueous solution and an HPβCD/LAE clathrate aqueous solution (4% w/v) containing a same amount of 1% w/v LAE were prepared, respectively. The pH values of the LAE aqueous solution and the HPβCD/LAE clathrate aqueous solution were adjusted to 1, 3, 5, 7, 9, and 11 with 0.01 mol/L to 0.5 mol/L of sodium hydroxide and hydrochloric acid solutions, respectively. After allowing to stand at room temperature for 24 h, the absorbance at 600 nm of the LAE aqueous solutions and the HPβCD/LAE clathrate aqueous solutions with different pH values were measured with a UV spectrophotometer. The absorbance was used to represent a turbidity of the solution, while pure water was used as a reference. The particle size of the solution was measured with a ZS90 nanometer particle size analyzer. Photographs were taken to record the changes of the above solutions stored at 4° C. for 0 h, 24 h, 7 d, and 35 d to characterize the low-temperature storage stability of the samples.
# [2] = pH range; cited from earlier work
# [3] = in water at room temperature; cited from earlier work
# [4] = pH stability by turbidity and particle size; format: physicochemical; settings: aqueous solution containing 1% w/v LAE, pH 1 to 11, room temperature 24 h
# Method: as §1
# [5] = test system: Staphylococcus aureus; test: Antibacterial activity by Oxford cup method with xanthan gum as interfering substance; format: cell-based; settings: 0.20% LAE, xanthan gum present, compared with no xanthan gum
# Method: In order to test the performance of the HPβCD LAE clathrate prepared in Example 1, the antibacterial activity of the HPβCD/LAE clathrate in the presence of an anionic polysaccharide (xanthan gum) as an interfering substance was measured by an Oxford cup method. Groups A to G were set up, and each group had 3 parallel experiments. 15 mL of nutrient agar was added to each petri dish, cooled and solidified, and 100 μL of a Staphylococcus aureus solution (10^5 CFU/mL) was spread on each petri dish. […] Each group was placed with an Oxford cup, and 130 μL of an antibacterial solution was added to each Oxford cup; each of the Oxford cups was diffused in a 4° C. refrigerator for 24 h, cultured at 37° C. for 24 h, and an inhibition zone diameter (IZD) was measured with a micrometer. The mass percentages of the antibacterial solution added in Groups A to G were as follows: A: 0.20% LAE-no xanthan gum; B: 0.20% LAE; C: 0.08% HPβCD/LAE clathrate-0.02% LAE; D: 0.16% HPβCD/LAE clathrate-0.04% LAE; E: 0.40% HPβCD/LAE clathrate-0.10% LAE; F: 0.60% HPβCD/LAE clathrate-0.15% LAE; and G: 0.80% HPβCD/LAE clathrate-0.20% LAE. The […] was the raw material in Example 1.
smiles,measurement,setting,value
"CCCCCCCCCCCC(=O)N[C@@H](CCCN=C(N)N)C(=O)OCC.Cl [LAE, ethyl lauroyl arginate hydrochloride]",low-temperature storage appearance,"[1]; prolonged storage at low temperature (4° C., up to 35 d)",eventually fully precipitated
same,low-temperature storage appearance,"[1]; storage at low temperature (4° C.) for 24 h, pH 1 to 11","except for the solution of pH=7, all other LAE solutions had obvious crystallization"
same,chemical stability,[2],desirable chemical stability at a pH value of 3 to 7
same,solubility,[3],less than 2%
same,"pH stability (turbidity, particle size)",[4],obviously aggregated outside the pH value of 3 to 7
same,inhibition zone,[5],significantly reduced the inhibition zone of LAE
